Experimental data taken from ChEMBL document CHEMBL1137453, “Structure-activity relationship and biological property of cortistatins, anti-angiogenic spongean steroidal alkaloids” (Bioorg Med Chem, 2007).

Columns and labels:
K562 = experiment: Antiproliferative activity against human K562 cells by WST-8 colorimetric assay; format: functional, cell-based
[1] = Antiproliferative activity against mouse Neuro-2A cells by WST-8 colorimetric assay; format: functional, cell-based; conditions: N2a
[2] = Antiproliferative activity against human KB3-1 cells by WST-8 colorimetric assay; format: functional, cell-based; conditions: KB 3-1
HUVEC = experiment: Antiproliferative activity against HUVEC cells by WST-8 colorimetric assay; format: cell-based; conditions: Homo sapiens
NHDF = experiment: Antiproliferative activity against NHDF cells by WST-8 colorimetric assay; format: functional, cell-based; conditions: Homo sapiens

Row | Structure (SMILES) | IC50 (K562) | IC50 [1] | IC50 [2] | IC50 (HUVEC) | IC50 (NHDF)
1 | CN(C)[C@H]1C[C@@]23CC[C@@]4(O2)C(=CC[C@@]2(C)[C@H]4CC(=O)[C@]2(O)c2ccc4ccncc4c2)C=C3[C@@H](O)[C@@H]1O | > 300000 nM | > 300000 nM | 55000 nM | 150 nM | > 300000 nM
2 | CN(C)[C@H]1C[C@@]23CC[C@@]4(O2)C(=CC[C@@]2(C)[C@H]4C[C@H](O)[C@@H]2c2ccc4ccncc4c2)C=C3[C@@H](O)[C@@H]1O | 200000 nM | 160000 nM | 120000 nM | 1100 nM | > 300000 nM
3 | CC1CN(C)CCC1CCC(C)[C@H]1CC[C@@H]2[C@]1(C)CC=C1C=C3C=C[C@@H](N(C)C)C[C@]34CC[C@@]12O4 (stereo not given in full) [CORTISTATIN F] | 4000 nM | 4000 nM | 10800 nM | 1900 nM | 4100 nM
4 | CN(C)[C@@H]1C=CC2=CC3=CC[C@]4(C)[C@@H](c5ccc6ccncc6c5)CC[C@H]4[C@@]34CC[C@]2(C1)O4 [CORTISTATIN J] | 3300 nM | 3300 nM | 9100 nM | 8 nM | 2400 nM

More lines, main results first:

Row | IC50 (K562) | Structure (SMILES) | IC50 [1] | IC50 [2] | IC50 (HUVEC) | IC50 (NHDF)
5 | 2800 nM | CC1CN(C)CCC1CCC(C)[C@H]1CC[C@@H]2[C@]1(C)CCC1=CC3=CC[C@@H](N(C)C)C[C@]34CC[C@@]12O4 (stereo not given in full) [CORTISTATIN E] | 1900 nM | 2500 nM | 450 nM | 1900 nM
6 | 3800 nM | Cc1cnccc1/C=C/C(C)[C@H]1CC[C@@H]2[C@]1(C)CCC1=CC3=CC[C@@H](N(C)C)C[C@]34CC[C@@]12O4 (stereo not given in full) [CORTISTATIN G] | 4000 nM | 8900 nM | 800 nM | 2900 nM
7 | 2700 nM | Cc1cnccc1CCC(C)[C@H]1CC[C@@H]2[C@]1(C)CCC1=CC3=CC[C@@H](N(C)C)C[C@]34CC[C@@]12O4 (stereo not given in full) [CORTISTATIN H] | 2200 nM | 2300 nM | 350 nM | 2700 nM
8 | 3900 nM | CN(C)[C@@H]1CC=C2C=C3CC[C@]4(C)[C@@H](c5ccc6ccncc6c5)CC[C@H]4[C@@]34CC[C@]2(C1)O4 [CORTISTATIN K] | 3000 nM | 10200 nM | 40 nM | 2500 nM
9 | 4300 nM | CN(C)[C@H]1C[C@@]23CC[C@@]4(O2)C(=CC3=C[C@@H]1O)CC[C@]1(C)[C@@H](c2ccc3ccncc3c2)CC[C@H]14 [CORTISTATIN L] | 2800 nM | 14000 nM | 23 nM | 2400 nM
